What was measured:
Assay in all cases: selective drug sensitivity score (sDSS, relative to normal bone marrow) (sDSS (score)); higher = more potent and effective on the cell line relative to normal bone marrow cells
Conditions in all cases: 72 h
[1] = tested on: KASUMI-2
[2] = tested on: CCRF-CEM
[3] = tested on: REH
[4] = tested on: LC4-1
[5] = tested on: COG-LL-394h
[6] = tested on: MOLT-16
[7] = tested on: ALL-SIL
[8] = tested on: COG-LL-355h
[9] = tested on: DND-41
[10] = tested on: P12-ICHIKAWA
[11] = tested on: KASUMI-10
[12] = tested on: COG-LL-319h
[13] = tested on: NALL-1
[14] = tested on: KASUMI-9
[15] = tested on: PEER
[16] = tested on: MN-60
[17] = tested on: COG-LL-332h
[18] = tested on: HPB-ALL
[19] = tested on: SUP-B15
[20] = tested on: TMD5
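Also: ALL cell lines in 384-well plates, five doses spanning 10,000-fold, each plate scaled between vehicle and 100 µmol/L benzalkonium chloride controls, sDSS an adapted area-under-curve metric.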

Row | SMILES | selective drug sensitivity score [1] | selective drug sensitivity score [2] | selective drug sensitivity score [3] | selective drug sensitivity score [4] | selective drug sensitivity score [5] | selective drug sensitivity score [6] | selective drug sensitivity score [7] | selective drug sensitivity score [8] | selective drug sensitivity score [9] | selective drug sensitivity score [10] | selective drug sensitivity score [11] | selective drug sensitivity score [12] | selective drug sensitivity score [13] | selective drug sensitivity score [14] | selective drug sensitivity score [15] | selective drug sensitivity score [16] | selective drug sensitivity score [17] | selective drug sensitivity score [18] | selective drug sensitivity score [19] | selective drug sensitivity score [20]
1 | CC(C)Oc1ccc(-c2nn([C@@H](C)c3oc4ccc(F)cc4c(=O)c3-c3cccc(F)c3)c3ncnc(N)c23)cc1F [TGR-1202] (top concentration 2500 nM) | -2.36 | -1.16 | -1.76 | -1.76 | -1.46 | -2.46 | -0.36 | 5.14 | 2.74 | -2.56 | -2.56 | 1.64 | 1.24 | 1.44 | -1.86 | -2.56 | -1.56 | -2.56 | 1.14 | -2.56
2 | C[C@H](Nc1ncnc2nc[nH]c12)c1cc2cccc(Cl)c2c(=O)n1-c1ccccc1 [Duvelisib] (top concentration 500 nM) | 9.86 | 4.36 | -0.94 | -0.94 | -0.84 | 1.26 | -0.94 | 4.96 | -0.14 | -0.44 | -0.94 | 3.56 | -0.94 | 3.36 | -0.94 | -0.94 | 2.46 | -0.94 | 0.06 | -0.94
3 | Cc1c(-c2c(-c3ccc(F)o3)sc3ncnc(O[C@H](Cc4ccccc4OCc4ccnn4CC(F)(F)F)C(=O)O)c23)ccc(OCCN2CCN(C)CC2)c1Cl (top concentration 1000 nM) | -4.34 | -0.24 | -6.84 | -0.54 | -4.54 | 7.46 | -1.04 | 4.66 | -7.74 | -5.84 | -2.64 | 15.8 | -7.74 | -1.84 | -0.14 | -7.74 | -5.84 | -2.44 | 6.36 | -7.74
4 | CN[C@@H](C)C(=O)N[C@H](C(=O)N1CCC[C@H]1c1nc(C(=O)c2ccc(F)cc2)cs1)C1CCCCC1 [NVP-LCL161] (top concentration 25000 nM) | 2.88 | 1.18 | 2.38 | -5.42 | 6.58 | -1.62 | 0.08 | 12.2 | -2.72 | -4.32 | -3.52 | -2.32 | 2.48 | -2.72 | -2.72 | -5.72 | 2.38 | -2.62 | -3.82 | -1.92
5 | Nc1ccccc1NC(=O)c1ccc(CNC(=O)OCc2cccnc2)cc1 [Entinostat] (top concentration 10000 nM) | 7.68 | 3.78 | 2.68 | 4.48 | -3.72 | 6.58 | 12.1 | 1.98 | 1.28 | 7.58 | 3.68 | 12.7 | -0.82 | 8.28 | 6.88 | 1.68 | -0.62 | 4.28 | 7.08 | 5.38
6 | O=C(/C=C\n1cnc(-c2cc(C(F)(F)F)cc(C(F)(F)F)c2)n1)NNc1cnccn1 [Selinexor] (top concentration 10000 nM) | 16.7 | 9.38 | 10.3 | 7.78 | 5.78 | 13.9 | 9.88 | 11.9 | 14.6 | 10.1 | 3.78 | 9.68 | 2.98 | 7.98 | 10.2 | 3.58 | 9.68 | 3.78 | 16.3 | 0.38
7 | Nc1ncnc2c1nc(N)n2[C@@H]1O[C@H](CO)[C@@H](O)[C@H]1O [8-amino-adenosine] (top concentration 50000 nM) | 6.08 | 6.48 | 2.88 | 7.78 | 6.58 | 5.68 | 2.68 | -1.42 | -0.62 | 0.38 | 3.28 | 6.78 | 2.08 | 7.08 | 5.98 | 1.58 | 3.18 | -3.82 | 7.28 | 2.68
8 | C[C@H]1O[C@@H](O[C@H]2[C@@H](O)C[C@H](O[C@H]3[C@@H](O)C[C@H](O[C@H]4CC[C@@]5(C)[C@H](CC[C@@H]6[C@@H]5C[C@@H](O)[C@]5(C)[C@@H](C7=CC(=O)OC7)CC[C@]65O)C4)O[C@@H]3C)O[C@@H]2C)C[C@H](O)[C@@H]1O [Digoxin] (top concentration 1000 nM) | 5.9 | 8.9 | 6.3 | 7.8 | 4.1 | 12 | 5.6 | 8.7 | 2.4 | 8.2 | 10 | 10.3 | 6.3 | 7.1 | 5.5 | 2.7 | 9.8 | 5.5 | 9.2 | 6.9
9 | COc1ccc(COc2cc3oc(=O)c4cc(C(C)O)ccc4c3cc2OC)cc1 (stereo not given) [Palomid-529] (top concentration 10000 nM) | -0.24 | 0.86 | 6.66 | 12.6 | -0.24 | 4.36 | -0.24 | -0.24 | -0.24 | -0.14 | -0.24 | 17.2 | -0.04 | 0.66 | 4.16 | -0.24 | 0.46 | 0.76 | 5.26 | -0.24
10 | NC1(c2ccc(-c3nc4ccn5c(=O)[nH]nc5c4cc3-c3ccccc3)cc2)CCC1 [MK-2206] (top concentration 1000 nM) | 6.46 | 6.36 | 6.26 | 0.06 | -1.64 | 6.16 | 2.96 | 5.06 | -1.64 | 1.66 | -0.44 | 3.56 | 6.26 | 4.36 | -1.64 | -1.64 | 2.86 | 1.06 | -0.44 | 7.36
11 | C[C@@H](Nc1cc(F)cc(F)c1)c1cc(C(=O)N(C)C)cc2c(=O)cc(N3CCOCC3)oc12 [AZD-8186] (top concentration 1000 nM) | 7.54 | -0.26 | 9.54 | -0.26 | -0.26 | -0.26 | -0.26 | 5.04 | -0.26 | -0.26 | -0.26 | 0.74 | 2.34 | 6.04 | -0.26 | -0.26 | -0.26 | 1.94 | -0.26 | -0.26
12 | CCN(CC)CCNC(=O)c1c(C)[nH]c(/C=C2\C(=O)Nc3ccc(-c4csc(-c5ccccc5)n4)cc32)c1C [Amcasertib] (top concentration 10000 nM) | 0.8 | 6.7 | 3.6 | 0.9 | 1.3 | 3.5 | 3.6 | 6.8 | 6.8 | 0 | 5.2 | -0.1 | 5.2 | -0.2 | 4 | -0.2 | 7.2 | 4.3 | 0.5 | -1.7
13 | C[C@H]1C=C2C(=O)O[C@H]3CC[C@@H](C1)[C@@]23O [Galiellalactone] (top concentration 25000 nM) | -0.44 | 5.86 | 3.66 | 7.16 | -0.74 | 3.36 | 5.56 | 3.66 | 3.86 | 1.86 | 4.56 | 7.46 | -4.54 | 6.76 | 1.66 | 2.46 | 6.06 | 5.16 | 3.46 | 1.46
14 | COC(=O)N[C@@H](C)CNc1nccc(-c2cn(C(C)C)nc2-c2cc(Cl)cc(NS(C)(=O)=O)c2F)n1 [Encorafenib] (top concentration 1000 nM) | 0 | 0.2 | 1.6 | 2.9 | 0.2 | 1 | 0 | 1.4 | 0 | 1.7 | 0 | 0 | 0 | 1.4 | 0.9 | 0 | 0 | 1.1 | 0.9 | 0
15 | NC(=O)N1CCC(CC(=O)N2CCC([C@H]3c4ncc(Br)cc4CCc4cc(Cl)cc(Br)c43)CC2)CC1 [Lonafarnib] (top concentration 100000 nM) | 6.14 | 9.74 | 8.04 | 3.44 | 3.04 | 11.2 | 9.34 | 9.34 | 4.54 | 6.74 | -1.56 | 7.04 | 1.54 | 9.14 | 5.94 | 2.24 | 10.1 | 9.84 | 11.9 | -3.36
16 | Cc1nc(NC(=O)N2CCC[C@H]2C(N)=O)sc1-c1ccnc(C(C)(C)C(F)(F)F)c1 [Alpelisib] (top concentration 2500 nM) | 1.98 | 0.48 | -0.12 | 0.98 | 0.78 | -0.72 | 6.28 | 5.98 | -0.82 | -0.32 | -0.12 | 12.5 | -0.82 | 1.18 | -0.42 | 1.18 | 0.18 | 2.88 | -0.82 | -0.82
17 | O=C(Nc1ccc2[nH]nc(-c3ccncc3)c2c1)[C@@H]1CCN(CC(=O)N2CCN(c3ccc(-c4ncccn4)cc3)CC2)C1 (top concentration 10000 nM) | 6.16 | -0.54 | 4.86 | 4.26 | -0.14 | 1.06 | 0.16 | 6.26 | 4.46 | 1.06 | -0.74 | 2.16 | -4.14 | 0.36 | 2.16 | -3.64 | -0.54 | -0.44 | 12.6 | -0.34
18 | CN1CCC(CNc2ccc3ncc(-c4cccc(OC(F)(F)F)c4)n3n2)CC1 [SGI-1776] (top concentration 10000 nM) | 0.62 | 0.52 | -2.78 | -1.08 | 0.82 | -3.28 | -1.48 | 1.72 | -1.18 | -2.98 | 4.82 | -1.28 | -2.18 | -1.68 | -0.58 | -3.78 | 0.22 | -4.08 | -0.88 | -0.98

Source: the supplement of paper PMC8967900
